Experimental data: ChEMBL document CHEMBL2074522, “Role of P-glycoprotein-mediated secretion in absorptive drug permeability: An approach using passive membrane permeability and affinity to P-glycoprotein” (J Pharm Sci, 1999)

Target: ATP-dependent translocase ABCB1 (Homo sapiens, UniProt P08183)
Assay: TP_TRANSPORTER: inhibition of Verapamil binding in membranes from Vinblastine-induced Caco-2 cells
Format: functional, cell membranes, Membrane

ATP-dependent translocase ABCB1, sequence (P08183 whole entry): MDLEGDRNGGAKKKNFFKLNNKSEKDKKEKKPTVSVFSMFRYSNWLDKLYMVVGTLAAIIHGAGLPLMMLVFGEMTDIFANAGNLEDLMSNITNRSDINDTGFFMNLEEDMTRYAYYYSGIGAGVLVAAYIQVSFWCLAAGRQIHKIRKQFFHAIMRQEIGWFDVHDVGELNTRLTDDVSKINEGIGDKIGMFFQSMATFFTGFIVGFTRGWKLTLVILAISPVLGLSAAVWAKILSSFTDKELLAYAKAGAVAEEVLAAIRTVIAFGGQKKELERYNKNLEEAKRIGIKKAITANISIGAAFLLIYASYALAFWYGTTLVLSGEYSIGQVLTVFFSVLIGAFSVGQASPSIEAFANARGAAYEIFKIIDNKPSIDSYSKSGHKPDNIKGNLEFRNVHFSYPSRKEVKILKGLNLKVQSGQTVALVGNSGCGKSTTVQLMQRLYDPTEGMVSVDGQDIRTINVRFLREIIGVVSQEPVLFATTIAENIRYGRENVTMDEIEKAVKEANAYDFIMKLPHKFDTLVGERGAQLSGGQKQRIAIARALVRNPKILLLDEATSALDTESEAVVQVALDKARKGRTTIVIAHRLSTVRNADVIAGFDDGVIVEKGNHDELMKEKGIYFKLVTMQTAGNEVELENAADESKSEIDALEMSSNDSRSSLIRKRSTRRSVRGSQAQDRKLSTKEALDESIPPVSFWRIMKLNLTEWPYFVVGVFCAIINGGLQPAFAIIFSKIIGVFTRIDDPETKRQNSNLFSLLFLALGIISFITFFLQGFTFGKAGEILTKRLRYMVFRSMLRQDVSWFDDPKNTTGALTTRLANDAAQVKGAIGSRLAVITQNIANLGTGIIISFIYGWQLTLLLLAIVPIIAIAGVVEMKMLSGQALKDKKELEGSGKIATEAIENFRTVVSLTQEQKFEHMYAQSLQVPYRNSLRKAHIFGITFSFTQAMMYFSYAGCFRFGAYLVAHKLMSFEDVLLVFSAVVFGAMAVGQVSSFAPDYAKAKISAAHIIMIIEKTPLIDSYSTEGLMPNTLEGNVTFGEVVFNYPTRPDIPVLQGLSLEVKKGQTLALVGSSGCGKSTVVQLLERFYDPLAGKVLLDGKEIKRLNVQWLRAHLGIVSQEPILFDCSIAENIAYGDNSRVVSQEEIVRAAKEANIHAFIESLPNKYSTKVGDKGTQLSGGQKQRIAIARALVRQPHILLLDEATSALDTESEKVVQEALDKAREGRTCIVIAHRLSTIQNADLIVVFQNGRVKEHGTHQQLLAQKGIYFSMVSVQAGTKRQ

- Ki (read-out: Ki1): 5.5 µM
- Ki (read-out: Ki2): 3200 µM
SMILES: CC(C)NCC(O)COc1ccc(CCNC(=O)NC(C)C)cc1 (configuration not stated) [PAFENOLOL]
